One series relates to Male Sprague Dawley rats. The series is described as follows: Oral glucose tolerance test (oGTT) in rats. It is filed as in vivo. The following applies: rat oGTT, dextrose 3 g/kg. The procedure:
General Procedure—Oral Glucose Tolerance Test (oGTT)
Male Sprague Dawley rats (Harlan, San Diego, Calif.) weighing approximately 350-375 g were fasted for 16 hours and randomly grouped (n=6) to receive a RUP3 agonist at 0.3, 3 or 30 mg/kg. Compounds were delivered orally via a gavage needle (p.o., volume 2 mL/kg). At time 0, levels of blood glucose were assessed using a glucometer (Accu-Chek Advantage, Roche Diagnostics), and rats were administered either vehicle (20% hydroxypropyl-beta-cyclodextrin) or test compound. Thirty minutes after administration of test compound, levels of blood glucose were again assessed, and rats were administered dextrose orally at a dose of 3 g/kg. Blood glucose measurements were then taken 30 min, 60 min, and 120 min after this time.

Another series has as its target CYP2C19 (Homo sapiens, UniProt P33261). The series is described as follows: P450 inhibition screening assay, CYP2C19. It is filed as in vitro ADME. The settings on record: cDNA expressed human enzyme, fluorescent substrate DBF. Here is the method:
(§1) The P450 inhibition screening assay was performed in 96-well microtiter plates by using cDNA expressed human enzymes (CYP1A2, 2C9, 2C19, 2D6 and 3A4). […] The enzymatic reaction was initiated by adding individual P450 enzymes pre-mixed with P450-specific fluorescent substrates, and stopped by adding acetonitrile (or NaOH for DBF assays) to the reaction mixture after incubation at 37° C. for a given amount of time. The fluorescence of metabolites was measured on a Biotek fluorescence reader. The results were expressed as inhibition percentage relative to the control (no test compound). IC50 values were estimated from the concentration response curve. […] Test compounds are classified into three categories based on their IC50 values.

For a further series, the target named is CYP3A4 (Homo sapiens, UniProt P08684). Briefly: P450 inhibition screening assay, CYP3A4. In kind it is in vitro ADME. The following applies: cDNA expressed human enzyme, fluorescent substrates. Here is the method: as §1
In another series the target is CYP2D6 (Homo sapiens, UniProt P10635). The series is described as follows: P450 inhibition screening assay, CYP2D6. It is filed as in vitro ADME. The settings on record: cDNA expressed human enzyme, fluorescent substrate AMMC. Here is the method:
as §1

The target in another series is T1, CYP1A2 (Homo sapiens, UniProt P05177).
T1 sequence (P05177 1-516): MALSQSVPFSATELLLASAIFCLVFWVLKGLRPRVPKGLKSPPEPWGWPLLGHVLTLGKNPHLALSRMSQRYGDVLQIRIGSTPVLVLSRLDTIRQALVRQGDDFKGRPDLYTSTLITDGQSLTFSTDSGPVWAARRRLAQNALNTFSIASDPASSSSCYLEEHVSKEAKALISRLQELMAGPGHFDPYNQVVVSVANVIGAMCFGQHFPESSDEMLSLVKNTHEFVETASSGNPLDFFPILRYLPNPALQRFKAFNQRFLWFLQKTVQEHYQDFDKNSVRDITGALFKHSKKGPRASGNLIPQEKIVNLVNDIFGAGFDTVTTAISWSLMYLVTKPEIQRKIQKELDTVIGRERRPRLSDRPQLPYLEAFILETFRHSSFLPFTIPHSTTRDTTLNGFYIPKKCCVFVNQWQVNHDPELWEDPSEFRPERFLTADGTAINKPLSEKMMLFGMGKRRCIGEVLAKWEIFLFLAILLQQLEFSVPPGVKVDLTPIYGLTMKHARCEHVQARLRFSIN
Briefly: P450 inhibition screening assay, CYP1A2. The following applies: cDNA expressed human enzyme, fluorescent substrate CEC. It is filed as in vitro ADME. Here is the method:
as §1

Another series has as its target CYP2C9 (Homo sapiens, UniProt P11712). Briefly: P450 inhibition screening assay, CYP2C9. It is filed as in vitro ADME. The following applies: cDNA expressed human enzyme, fluorescent substrate DBF; read-out: IC50 against the CYP2C9 enzyme. Here is the method: as §1
Series [1] is described as follows: Solubility determination in water (HPLC). It is filed as physicochemical. The following applies: thermodynamic from solid, about 25° C., equilibrated no less than 12 hours, read-out: aqueous solubility. The procedure: The vial contents were mixed for 30 seconds using a VWR mini vortexter followed by sonication (Branson 1510) for 1 minutes. Vials were placed into a constant temperature bath (i.e., about 25° C.) and allowed to equilibrate for no less than 12 hours. The resulting suspensions were transferred to eppendorf tubes each equipped with a 0.2 μm nylon filter (Costar 8168) and were centrifuged for 10 minutes at 14,000 rpms. The supernatant from each eppendorf tube was collected and diluted with HPLC grade acetonitrile with dilution factor of 200, 400 or 500. Each solution was analyzed by an HPLC method. […]
Quantification was effected by comparison of the HPLC peak area for each test solution with the peak area taken from a standard plot of concentration versus peak area for standards of known concentration. As is conventional, the standard concentrations for 4-[5-methyl-6-(2-methyl-pyridin-3-yloxy)-pyrimidin-4-yloxy]piperidine-1-carboxylic acid isopropyl ester were selected to fall within a linear range of concentration versus absorbance for the UV detector employed. […]

SMILES strings stand for the structures. pIC50: −log10 of the molar value. Values after ≈ are worked out from the molar mass of the structure shown.

Sequence of CYP2C9 (P11712 whole entry): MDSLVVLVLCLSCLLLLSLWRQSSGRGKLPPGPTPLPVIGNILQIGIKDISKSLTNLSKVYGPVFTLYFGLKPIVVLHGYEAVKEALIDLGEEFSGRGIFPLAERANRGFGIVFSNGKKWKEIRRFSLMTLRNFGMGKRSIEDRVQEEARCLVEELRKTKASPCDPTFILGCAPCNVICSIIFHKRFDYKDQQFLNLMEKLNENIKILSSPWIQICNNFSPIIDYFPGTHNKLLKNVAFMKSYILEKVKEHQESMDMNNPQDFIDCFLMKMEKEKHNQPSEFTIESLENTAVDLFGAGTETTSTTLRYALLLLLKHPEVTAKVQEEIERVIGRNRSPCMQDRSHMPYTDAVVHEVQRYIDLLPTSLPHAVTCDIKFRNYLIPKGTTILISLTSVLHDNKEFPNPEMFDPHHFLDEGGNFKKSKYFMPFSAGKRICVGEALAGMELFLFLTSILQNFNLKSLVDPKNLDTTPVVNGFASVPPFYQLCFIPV
Sequence of CYP3A4 (P08684 whole entry): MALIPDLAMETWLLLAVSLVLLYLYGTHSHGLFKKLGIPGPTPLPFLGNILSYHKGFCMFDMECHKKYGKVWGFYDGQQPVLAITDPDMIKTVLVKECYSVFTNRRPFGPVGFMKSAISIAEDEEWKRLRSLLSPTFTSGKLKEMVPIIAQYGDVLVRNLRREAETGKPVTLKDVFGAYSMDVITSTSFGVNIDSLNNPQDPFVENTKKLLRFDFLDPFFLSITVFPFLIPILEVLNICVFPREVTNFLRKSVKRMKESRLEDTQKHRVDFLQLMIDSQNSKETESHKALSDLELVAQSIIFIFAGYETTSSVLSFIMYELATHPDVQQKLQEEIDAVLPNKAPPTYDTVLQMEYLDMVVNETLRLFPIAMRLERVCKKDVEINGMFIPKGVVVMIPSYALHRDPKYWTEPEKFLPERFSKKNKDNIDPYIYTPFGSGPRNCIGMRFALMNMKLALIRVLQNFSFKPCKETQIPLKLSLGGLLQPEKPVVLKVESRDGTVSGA
Sequence of CYP2C19 (P33261 whole entry): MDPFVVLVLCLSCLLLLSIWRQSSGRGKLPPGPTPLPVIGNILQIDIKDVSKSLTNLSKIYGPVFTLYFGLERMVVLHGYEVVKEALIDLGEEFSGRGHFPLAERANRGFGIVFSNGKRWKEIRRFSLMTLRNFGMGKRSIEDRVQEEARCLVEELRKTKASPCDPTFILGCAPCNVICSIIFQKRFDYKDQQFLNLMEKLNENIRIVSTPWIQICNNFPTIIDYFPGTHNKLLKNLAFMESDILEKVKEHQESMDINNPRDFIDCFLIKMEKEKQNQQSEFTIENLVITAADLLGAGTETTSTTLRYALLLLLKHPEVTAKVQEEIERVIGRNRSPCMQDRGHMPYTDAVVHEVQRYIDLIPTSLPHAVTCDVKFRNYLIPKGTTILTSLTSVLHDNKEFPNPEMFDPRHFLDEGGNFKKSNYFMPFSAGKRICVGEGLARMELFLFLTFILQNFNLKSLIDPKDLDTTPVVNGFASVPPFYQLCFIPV
Sequence of CYP2D6 (P10635 whole entry): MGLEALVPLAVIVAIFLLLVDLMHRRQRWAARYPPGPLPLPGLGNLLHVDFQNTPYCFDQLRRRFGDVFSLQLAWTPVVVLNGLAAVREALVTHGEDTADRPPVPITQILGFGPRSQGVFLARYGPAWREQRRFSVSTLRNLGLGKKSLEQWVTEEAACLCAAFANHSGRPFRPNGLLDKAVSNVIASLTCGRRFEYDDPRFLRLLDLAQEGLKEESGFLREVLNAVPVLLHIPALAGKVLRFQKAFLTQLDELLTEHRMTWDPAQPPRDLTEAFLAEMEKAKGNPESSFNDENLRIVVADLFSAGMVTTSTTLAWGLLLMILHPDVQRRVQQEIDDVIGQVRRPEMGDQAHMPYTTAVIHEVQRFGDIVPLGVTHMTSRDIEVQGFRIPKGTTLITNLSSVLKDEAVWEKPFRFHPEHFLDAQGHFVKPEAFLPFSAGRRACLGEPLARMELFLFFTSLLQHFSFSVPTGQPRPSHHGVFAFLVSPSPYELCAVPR

One may read the pIC50 as −log10 of the IC50, conventionally taken in molar units. The solubility is the concentration that dissolves in the medium under given conditions. For the molecule `Cc1ncccc1Oc1ncnc(OC2CCN(C(=O)OC(C)C)CC2)c1C` [4-[5-methyl-6-(2-methyl-pyridin-3-yloxy)-pyrimidin-4-yloxy]-piperidine-1-carboxylic acid isopropyl ester], the “Mean % Inhibition of Glucose Excursion” value in the series with Male Sprague Dawley rats (0.3 mg/Kg p.o.) is listed as 22%; with Male Sprague Dawley rats (3 mg/Kg p.o.), 24%; in the series with Male Sprague Dawley rats (30 mg/Kg p.o.), 70%. The pIC50 was ~5.00 on CYP2C19; < 4.40 on CYP3A4; < 4.40 at CYP2D6; < 4.40 at CYP1A2; < 4.82 at CYP2C9. The solubility in series [1] is ~40 mg/mL (≈ 104 mM).

These data come from patent publication US20100160359A1, “Modulators of Metabolism and the Treatment of Disorders Related Thereto” (ARENA PHARMACEUTICALS, INC., priority 2005, published 2010).
